Where a name gives a salt, the structure may show the parent alone.
Biological target: T1, MMP2 (gelatinase A) (Homo sapiens, UniProt P08253)
T1 construct: made in house; host or cells: Tn insect cells, baculovirus (pFAST BAC 1)
T1 sequence (P08253 110-660): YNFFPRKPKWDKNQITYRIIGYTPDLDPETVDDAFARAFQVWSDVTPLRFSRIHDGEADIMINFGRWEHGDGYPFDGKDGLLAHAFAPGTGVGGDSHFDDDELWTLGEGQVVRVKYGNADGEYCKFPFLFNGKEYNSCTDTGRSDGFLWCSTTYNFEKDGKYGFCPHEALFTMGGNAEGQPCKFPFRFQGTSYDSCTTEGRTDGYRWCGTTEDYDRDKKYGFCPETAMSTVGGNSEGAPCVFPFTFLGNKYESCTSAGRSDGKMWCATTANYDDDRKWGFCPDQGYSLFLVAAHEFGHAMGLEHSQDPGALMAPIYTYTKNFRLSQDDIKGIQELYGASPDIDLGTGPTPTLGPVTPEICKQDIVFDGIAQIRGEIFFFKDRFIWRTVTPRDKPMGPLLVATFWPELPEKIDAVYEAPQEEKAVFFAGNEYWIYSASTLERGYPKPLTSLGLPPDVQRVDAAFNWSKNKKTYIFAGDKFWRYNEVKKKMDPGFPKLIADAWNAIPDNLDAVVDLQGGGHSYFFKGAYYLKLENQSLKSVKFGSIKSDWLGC
Assay: In vitro inhibition of MMP2 (gelatinase A), fluorogenic peptide substrate
Type: biochemical
Conditions: APMA-activated recombinant human proMMP2; substrate 10 μM; 37° C.
Procedure: The inhibitory activities of compounds of formula I on MT1-MMP, MMP1 (collagenase 1) and MMP2 (gelatinase A) can be determined as follows:
Stock solutions of substrate (MCA-Pro-Leu-Gly-Leu-Dpa-Ala-Arg-NH2, Knight, C. G., Willenbrock, F., Murphy, G., A novel coumarin-labelled peptide for sensitive continuous assays of the matrix metalloproteinases, FEBS lett., 296, 263-266, (1992)), are prepared in 100% DMSO at a concentration 1.0 mM. Stock solutions of inhibitors are prepared in 100% DMSO. The inhibitor is diluted into the assays from a solution in 100% DMSO, and controls substitute an equal volume of DMSO so that the final DMSO concentration from inhibitor and substrate dilutions in all assays is 6.0%. Assays are performed in assay buffer (150 mM NaCl, 10 mM CaCl2, 50 mM Tris-Cl pH7.5, 0.05% Brij-35) containing 6.0% DMSO once the substrate and inhibitor are diluted into it. The substrate concentration used in the assays is 10 μM. The test is carried out at 37° C. The fluorescence changes are monitored using an excitation wavelength of 320 nm and an emission wavelength of […]. The reaction mixture is added in duplicate to appropriate wells of a 96 well microfluor plate. The reaction mixture is preincubated with the inhibitor for 30 min, the reaction is started by the addition of MMP enzyme and the fluorescence intensity is measured for 10 min. A time point that is on a linear part of the curve is chosen to determine the activity. The inhibition results are expressed as the inhibitor concentrations that produced 50% inhibition (IC50) of the activity in the control (non-inhibited) reaction. In this test, the compounds of the formula I and their pharmacologically acceptable salts have an inhibiting concentration IC50 [μmol/litre] of 0.0001 and 0.030, usually of 0.0002 to 0.010, for MMP2 and an inhibiting concentration IC50 [μmol/litre] of 0.0005 and 0.125, usually of 0.001 to 0.05, for MT1-MMP.
Plasmid: The cDNA for human proMMP2 is supplied by Prof. Motoharu Seiki, Institute of Medical Science, The University of Tokyo. The cDNA encoding a full length on human pro-MMP2 is generated by PCR of cDNA derived from RNA isolated from human HT1080 cells (ATCC# CCL121). The primers to generate this cDNA are GAATTCGATGGAGGCG CTAATGGCCCGG and […] corresponding to full length human pro-MMP2 of the reported cDNA sequence, GenBank accession number J03210. The resulting 2.0 Kb PCR fragment is cloned into EcoR1/Xho 1 site of pFAST BAC 1 vector (pBAC-MMP2) (Collier, I. E., Wilhelm, S. M., Eisen, A. Z., Manner, B. L., Grant, G. A., Seltzer, J. L., Kronberger, A., He, C., Bauer, E. A. and Goldberg, G. I. J. Biol. Chem., 263:6579-6587, 1988).
Expression and Purification: For baculovirus expression of r-proMMP2, pBAC-MMP2 is transformed into DH10BAC competent cells to produce a r-proMMP2 bacmid DNA. The recombinant bacmid DNA is transfected into cultured insect cells (Tn cells) with Cellfectin reagent (Gibco BRL). Recombinant baculovirus are plaque purified to homogeneity and are used to generate high titer stocks of the recombinant baculovirus. Expression of r-proMMP2 is confirmed by gelatin zymography.
Culture fluids of Tn cells infected with baculovirus are centrifuged and filtrated through a […] pore size filter to remove cell debris. The recombinant proMMP2 as absorbed to gelatin Sepharose 4B (Pharmacia Biotech) in equilibration buffer of in 25 mM Tris-HCl (pH 7.5), 1 M NaCl, 10 mM CaCl2, 0.05% Briji 35 at 4° C. After washing the beads with equilibration buffer, r-proMMP2 as eluted with equilibration buffer containing 10% DMSO. The enzyme are stored at 4° C. until activation. For assay, the purified proMMP2 is activated with 1 mM APMA for 1 hr at 37° C.

Row | Compound | IC50 [nM]
1 | 2-[(Cyclopropylmethoxy-benzenesulfonyl)-(4-[1,2,4]triazol-1-yl-benzyl)-amino]-N-hydroxyacetamide-hydrochloride salt [Example 82b] | 10.4
2 | C#CCOc1ccc(S(=O)(=O)N(CC(=O)NO)Cc2ccc(OC)cc2)cc1 [Example 75, [(4-methoxy-benzyl)-[4-prop-2-ynyloxy-benzenesulfonyl]-amino]-N-hydroxy-acetamide] | 1
3 | O=C(CN(Cc1ccc(-n2cncn2)cc1)S(=O)(=O)c1ccc(OCCC2CC2)cc1)NO [Example 82a] | 40.2
4 | O=C(CN(Cc1ccc(-n2cncn2)cc1)S(=O)(=O)c1ccc(OCc2ccoc2)cc1)NO [Example 82c] | 5.3

The next lines start with the values.

Row | IC50 [nM] | Compound
5 | 0.7 | COc1ccc(CN(CC(=O)NO)S(=O)(=O)c2ccc(OCCCCl)cc2)cc1 [Example 68, 2-{[4-(3-chloro-propoxy)-benzenesulfonyl]-(4-methoxy-benzyl)amino}-N-hydroxy-acetamide]
6 | 0.2 | C=CCCOc1ccc(S(=O)(=O)N(CC(=O)NO)Cc2ccc(-n3cncn3)cc2)cc1 [Example 79, 2-[(4-but-3-enyloxy-benzenesulfonyl)-(4-[1,2,4]triazol-1-yl-benzyl)-amino]-N-hydroxy-acetamide-hydrochloride salt]
7 | 8 | C=CCCOc1ccc(S(=O)(=O)N(CC(=O)NO)Cc2ccc(-n3ccnc3)cc2)cc1 [Example 80, 2-[(4-But-3-enyloxy-benzenesulfonyl)-(4-imidazol-1-yl-benzyl)-amino]-N-hydroxy-acetamide-hydrochloride]
8 | 10.4 | C=CCCOc1ccc(S(=O)(=O)N(CC(=O)NO)Cc2ccc(N3CCOCC3)cc2)cc1 [Example 81, 2-[(4-But-3-enyloxy-benzenesulfonyl)-(4-morpholin-4-yl-benzyl)-amino]-N-hydroxy-acetamide-hydrochloride]
9 | 2.1 | C=CCCOc1ccc(S(=O)(=O)N(CC(=O)NO)Cc2cccc(F)n2)cc1 [Example 83a, 2-([4-But-3-enyloxy-benzenesulfonyl]-(6-fluoro-pyridine-2-yl)methyl-amino)-N-hydroxyacetamide]
10 | 14.7 | C=CCCOc1ccc(S(=O)(=O)N(CC(=O)NO)Cc2ccc(N3CCCC3)cc2)cc1 [Example 84a, 2-[(4-But-3-enyloxy-benzenesulfonyl)-(4-(pyrrolidin-1-yl)-benzyl)-amino]-N-hydroxyacetamide-hydrochloride]

— patent publication US8034810B2, “Arylsulfonamido-substituted hydroxamic acid derivatives” (Novartis AG, priority 1999, dated 2011)
